Results taken from paper PMC3225368, “A Conformational Switch in the Active Site of BT_2972, a Methyltransferase from an Antibiotic Resistant Pathogen B. thetaiotaomicron” (PLoS ONE, 2011).
Marks after values point to notes of the source that are not given here.

Molecular target: T1, BT_2972 (Bacteroides thetaiotaomicron, UniProt Q8A3I2)
T1 construct: 257 amino acids with noncleavable N-terminal (His)6 tag; pGS21a, E. coli BL21 (DE3); monomer in solution; first 12 residues disordered
Assay: isothermal titration calorimetry
Type: binding
Settings: 20 mM Tris-HCl pH 8.0, 200 mM NaCl, 24 °C; single-site model

T1 sequence (Q8A3I2 entry or part of it, change not shown): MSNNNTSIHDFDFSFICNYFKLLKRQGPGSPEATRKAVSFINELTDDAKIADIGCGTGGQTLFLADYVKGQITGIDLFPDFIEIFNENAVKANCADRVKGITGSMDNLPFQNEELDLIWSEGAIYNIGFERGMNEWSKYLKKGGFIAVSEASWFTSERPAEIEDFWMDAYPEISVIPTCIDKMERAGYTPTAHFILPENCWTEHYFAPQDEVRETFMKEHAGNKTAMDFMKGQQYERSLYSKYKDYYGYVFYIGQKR

Compound	Ka
C[S+](CC[C@H](N)C(=O)O)C[C@H]1O[C@@H](n2cnc3c(N)ncnc32)[C@H](O)[C@@H]1O (some centres unmarked) [AdoMet]	0.395×10^5 (±0.0435×10^5)
Nc1ncnc2c1ncn2[C@@H]1O[C@H](CSCC[C@H](N)C(=O)O)[C@@H](O)[C@H]1O [AdoHcy]	3.498×10^5 (±0.66×10^5)
